Test results taken from PMC11893401, “Pharmacokinetics and pharmacodynamics of insulin lispro 25 versus the original preparation (Humalog®25) in Chinese healthy male volunteers” (Frontiers in Pharmacology, 2025).

Conditions: in vivo
Experimental: Tolerability and safety were assessed by closely monitoring blood glucose levels and conducting other tests. All adverse events and severe adverse events (SAEs) were evaluated.
The safety of both formulations was evaluated through the assessment of laboratory examinations, 12-lead electrocardiogram, and vital signs.

Infusion site swelling | Substance
1(2.0) Number of Subjects(%) | mixed protamine zinc recombinant human insulin lispro injection [listing 1 of 2 here]
0 Number of Subjects(%) | mixed protamine zinc recombinant human insulin lispro injection [listing 2 of 2 here]
